{
  "source": "patent US20220105029A1",
  "about": "“BIODEGRADABLE CHITOSAN MICRONEEDLE PATCH FOR TRANSDERMAL DELIVERY FOR LIVESTOCK PAIN MANAGEMENT” (THE BOARD OF TRUSTEES OF THE UNIVERSITY OF ARKANSAS, priority 2020, published 2022)",
  "key": {"[1]": {"settings": "cited from earlier work"}, "[2]": {"experiment": "Solubility of meloxicam in solvents", "type": "physicochemical"}},
  "data": [
    {"smiles": "Cc1cnc(NC(=O)C2=C(O)c3ccccc3S(=O)(=O)N2C)s1", "note": "[meloxicam]", "values": [
      {"measurement": "solubility in acids", "setting": "[1]", "value": "not dissolving in acids"},
      {"measurement": "solubility in dimethyl sulfoxide (DMSO)", "setting": "[1]", "value": "dissolves completely"},
      {"measurement": "solubility in acetic acid", "setting": "[2]", "value": "not soluble"}
    ]}
  ]
}
